What was measured:
[1] = target: T1, human Y4 receptor (Homo sapiens, UniProt P50391); test: Receptor binding, CHO cells transiently transfected with human Y4 receptor; settings: means ± S.E.M. of 3 to 5 experiments, read-out: Affinity IC50, humanY4/CHO
T1 construct: expressed in transfected cells; host or cells: CHO
Protocol: (§1) CHO cells transiently transfected with human Y4 and rat Y5 receptor: Transfection was performed using the lipofectamine method according to the manufacturer's protocol (GIBCO BRL Eggenstein, Germany) using expression plasmids encoding the rat Y5 or human Y4 receptor, respectively. Receptor binding was performed as described for rat Y1 expressing HEK 293 cells.

[2] = target: T2, human Y5 receptor (Homo sapiens, UniProt Q15761); test: Receptor binding, HEK 293 cells stably transfected with human Y5 receptor; settings: read-out: Affinity IC50, humanY5/293
T2 construct: expressed in transfected cells; host or cells: HEK 293
T2 sequence (Q15761 1-445): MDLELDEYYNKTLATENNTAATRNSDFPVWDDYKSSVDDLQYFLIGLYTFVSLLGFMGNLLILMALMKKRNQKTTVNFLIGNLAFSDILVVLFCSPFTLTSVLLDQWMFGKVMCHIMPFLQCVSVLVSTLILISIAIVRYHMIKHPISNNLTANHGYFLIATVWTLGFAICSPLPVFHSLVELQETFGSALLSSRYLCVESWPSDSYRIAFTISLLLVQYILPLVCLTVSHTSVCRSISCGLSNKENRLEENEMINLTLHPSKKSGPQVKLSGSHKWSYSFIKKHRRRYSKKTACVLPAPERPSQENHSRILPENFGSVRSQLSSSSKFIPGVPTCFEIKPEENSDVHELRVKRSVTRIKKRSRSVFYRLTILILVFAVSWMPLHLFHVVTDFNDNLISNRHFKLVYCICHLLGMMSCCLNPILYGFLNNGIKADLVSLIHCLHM
Protocol: HEK 293 cells stably transfected with human Y5 receptor:
Centrifugated cells were cultivated as described for BHK/Y1 cells except that a concentration of 0.7 mg/ml G-418 was used, no hygromycin added and no IPTG induction was necessary. The incubation buffer, cell cultivation and receptor binding was performed as described. Final concentration was 1.5×10^6 cells/ml and centrifugation stopped as described for Y1/BHK cells.

[3] = target: T3, humanY2 (Homo sapiens, UniProt P49146); test: Receptor binding, SMS-KAN cells (Y2); settings: read-out: Affinity IC50, humanY2/SMS-KAN
T3 construct: endoge- nously expressing Y1 and Y2 receptors; endogenous in cells; host or cells: SMS-KAN (neuroblastoma) cells
T3 sequence (P49146 1-381): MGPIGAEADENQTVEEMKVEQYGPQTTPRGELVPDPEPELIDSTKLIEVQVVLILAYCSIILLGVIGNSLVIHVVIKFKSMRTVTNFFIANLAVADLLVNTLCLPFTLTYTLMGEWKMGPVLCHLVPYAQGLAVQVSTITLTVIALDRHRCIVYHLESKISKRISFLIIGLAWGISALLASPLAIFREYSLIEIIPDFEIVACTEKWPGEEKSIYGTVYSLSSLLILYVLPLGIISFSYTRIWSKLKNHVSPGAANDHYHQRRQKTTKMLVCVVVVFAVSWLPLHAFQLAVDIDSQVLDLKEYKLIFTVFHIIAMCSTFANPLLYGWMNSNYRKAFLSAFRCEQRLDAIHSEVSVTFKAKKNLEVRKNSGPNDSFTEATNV
Protocol: SMS-KAN (neuroblastoma) cells: Cells were grown and receptor binding assay performed analogously as described hereinbefore under A and by Wieland et al. in Peptides 16, 1389-1394 (1995).

[4] = test system: NPY induced food intake; test: Food intake in satiated rats after NPY application to the PVN; type: in vivo, rat; settings: for % Inhibition of food intake: PVN, 2 h, 1 μg NPY
Protocol: For these determinations food intake was measured in normal satiated rats after application of NPY to the paraventricular nucleus (PVN) in the presence or absence of the test compound. […] The rats were individually housed in stainless steel cages where water and food were available ad libitum.
Rats under Pentobarbital anaesthesia were stereotactically implanted with a stainless steel double guide cannula targeted bilaterally at the PVNs. Stereotactic coordinates were: -1.8mm caudal, 0.5mm lateral to bregma and 7.0 mm below the skull surface. Injection cannulae extended the guide cannulae by 1 mm. Animals were allowed to recover from surgery for at least 10 days before being used in the experiments. Rats were handled and mock-injected during the […] recovery period to habituate them to the injection procedure.
Animals treated with both test compounds and NPY were treated first with the test compound. Then, 15 min. after PVN infusion of the test compound or vehicle (control) 1 μg of NPY was administered by PVN infusion.
Food intake was measured by placing preweighed pellets into the cages at the time of NPY injection. Pellets were removed from the cage at 2 h post NPY injection. The food intake of animals treated with test compound was calculated as a percentage of the food intake of control animals, i.e., animals treated with vehicle.

[5] = target: T4, rat Y5 receptor (Rattus norvegicus, UniProt Q63634); test: Receptor binding, CHO cells transiently transfected with rat Y5 receptor; settings: means ± S.E.M. of 3 to 5 experiments, read-out: Affinity IC50, ratY5/CHO
T4 construct: expressed in transfected cells; host or cells: CHO
T4 sequence (Q63634 1-445): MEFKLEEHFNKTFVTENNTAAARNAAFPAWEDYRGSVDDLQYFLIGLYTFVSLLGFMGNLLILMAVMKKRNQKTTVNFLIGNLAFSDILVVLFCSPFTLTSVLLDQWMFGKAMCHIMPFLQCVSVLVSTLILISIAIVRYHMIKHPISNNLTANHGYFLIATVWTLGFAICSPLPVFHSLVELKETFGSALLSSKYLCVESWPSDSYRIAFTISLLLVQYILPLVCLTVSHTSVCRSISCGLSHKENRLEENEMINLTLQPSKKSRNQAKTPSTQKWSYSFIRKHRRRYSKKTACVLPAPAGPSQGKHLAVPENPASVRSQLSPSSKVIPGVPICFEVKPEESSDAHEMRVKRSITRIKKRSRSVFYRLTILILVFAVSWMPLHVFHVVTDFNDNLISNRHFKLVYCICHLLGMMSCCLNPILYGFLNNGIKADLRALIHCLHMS
Protocol: as §1

[6] = test system: NPY; test: In vivo NPY-antagonism, NPY-induced blood pressure effects in pithed rats; settings: Rattus norvegicus, iv, 1 min, NPY 10 μg/kg i.v., diastolic blood pressure, read-out: pIC50 (in vivo NPY-antagonism) (converted)
Protocol: After intubation of the trachea the animals are pithed by introducing a blunt needle through the eye into the spinal bone marrow channel. The animals are ventilated with oxygen-rich ambient air using a respiratory pump (20 strokes/minute). A cannula is inserted in the left carotid artery and the arterial blood pressure is measured using a pressure gauge (Braun Melsungen Combitrans) connected to a recording device. For injection purposes a catheter is placed in the left jugular vein through which heparin is administered (200 IU/kg, i.v.). After the blood pressure has been stabilised, the animals are given 2 bolus injections of NPY (10 μg/kg, i.v.) at intervals of 15 minutes. The average increase in diastolic blood pressure is taken as the reference value (=100%). The test substances are injected in increasing doses (4 to 6 doses) at intervals of 15 minutes. One minute after administration of the test substance, NPY is administered.
The antagonistic effect of the test substances is determined by plotting the percentage inhibition of the NPY-induced blood pressure effects against the logarithm of the concentration of active substance.

T1 sequence (P50391 whole entry): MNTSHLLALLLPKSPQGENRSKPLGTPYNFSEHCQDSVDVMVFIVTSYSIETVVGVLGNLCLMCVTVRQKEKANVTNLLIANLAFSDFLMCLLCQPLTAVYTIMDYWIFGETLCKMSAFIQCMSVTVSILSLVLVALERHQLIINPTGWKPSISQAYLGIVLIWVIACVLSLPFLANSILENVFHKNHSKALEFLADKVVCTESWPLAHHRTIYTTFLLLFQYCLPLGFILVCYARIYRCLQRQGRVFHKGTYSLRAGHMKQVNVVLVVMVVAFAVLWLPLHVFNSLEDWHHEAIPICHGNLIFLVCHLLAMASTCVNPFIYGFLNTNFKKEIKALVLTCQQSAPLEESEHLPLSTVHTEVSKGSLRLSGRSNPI

Compound: N=C(N)NCCC[C@@H](NC(=O)C(c1ccccc1)c1ccccc1)C(=O)NCc1ccc(CNC(N)=O)cc1 [Compound C]
- IC50 [1]: 12.3 µM
- IC50 [2]: > 10 µM
- IC50 [3]: > 10 µM
- NPY induced food intake (result in words) [4]: reduced
- % Inhibition of food intake ([4]; 15 μg): 25.9%
- % Inhibition of food intake ([4]; 30 μg): 52.8%
- % Inhibition of food intake ([4]; 60 μg): 69.8%
- IC50 [5]: 21 µM
- ED50 [6]: 0.00776 µmol/kg

Source: US6114390A, “Amino acid derivatives, pharmaceutical compositions containing these compounds and processes for preparing them” (Karl Thomae GmbH, priority 1997, dated 2000)
